In paper PMC6934184, “Selective DNA-PKcs inhibition extends the therapeutic index of localized radiotherapy and chemotherapy” (The Journal of Clinical Investigation, 2019) one finds inhibition data, which are given here for one compound.

For orientation: inhibition means the change of the read-out against control, counted positive when it falls.

For this assay, the target named is T1, MET M1250T (Homo sapiens, UniProt P08581, M1250T).
T1 construct: purchased Thermo Fisher Scientific (Life Technologies) SelectScreen
T1 sequence (P08581 25-1390 M1250T): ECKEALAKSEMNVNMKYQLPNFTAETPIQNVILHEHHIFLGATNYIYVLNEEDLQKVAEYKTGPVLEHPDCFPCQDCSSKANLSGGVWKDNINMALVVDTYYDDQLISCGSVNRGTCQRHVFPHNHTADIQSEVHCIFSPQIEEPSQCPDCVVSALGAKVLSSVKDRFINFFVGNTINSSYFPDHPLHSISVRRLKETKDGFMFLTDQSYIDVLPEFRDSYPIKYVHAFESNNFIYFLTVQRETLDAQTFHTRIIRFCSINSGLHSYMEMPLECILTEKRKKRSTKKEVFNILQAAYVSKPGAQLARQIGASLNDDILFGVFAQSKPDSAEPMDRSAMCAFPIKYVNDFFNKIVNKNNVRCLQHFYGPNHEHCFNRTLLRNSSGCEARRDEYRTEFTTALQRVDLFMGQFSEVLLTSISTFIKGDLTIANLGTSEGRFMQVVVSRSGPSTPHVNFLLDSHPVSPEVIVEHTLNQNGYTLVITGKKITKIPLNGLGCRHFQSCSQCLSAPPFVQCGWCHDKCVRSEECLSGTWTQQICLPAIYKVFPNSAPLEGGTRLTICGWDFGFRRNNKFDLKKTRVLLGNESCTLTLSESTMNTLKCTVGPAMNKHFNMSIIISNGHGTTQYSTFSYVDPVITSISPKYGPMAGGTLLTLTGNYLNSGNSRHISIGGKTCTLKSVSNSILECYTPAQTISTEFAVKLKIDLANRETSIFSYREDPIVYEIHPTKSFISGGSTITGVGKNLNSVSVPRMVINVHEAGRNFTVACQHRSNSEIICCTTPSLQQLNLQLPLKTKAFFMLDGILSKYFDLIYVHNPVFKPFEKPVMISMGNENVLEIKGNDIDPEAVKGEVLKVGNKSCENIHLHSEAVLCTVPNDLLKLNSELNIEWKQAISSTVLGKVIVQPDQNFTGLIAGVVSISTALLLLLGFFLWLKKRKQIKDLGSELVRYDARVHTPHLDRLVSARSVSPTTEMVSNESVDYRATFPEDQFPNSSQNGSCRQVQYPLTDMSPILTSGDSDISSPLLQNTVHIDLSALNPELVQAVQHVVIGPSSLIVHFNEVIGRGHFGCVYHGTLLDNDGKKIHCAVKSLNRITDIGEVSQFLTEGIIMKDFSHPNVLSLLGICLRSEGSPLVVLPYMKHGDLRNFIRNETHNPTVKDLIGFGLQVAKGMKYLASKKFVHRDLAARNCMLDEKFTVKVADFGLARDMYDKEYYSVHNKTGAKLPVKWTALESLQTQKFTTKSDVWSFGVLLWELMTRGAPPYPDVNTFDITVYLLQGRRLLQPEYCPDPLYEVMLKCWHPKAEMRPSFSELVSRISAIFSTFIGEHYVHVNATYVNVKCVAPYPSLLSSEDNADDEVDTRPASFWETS
As to the kind of experiment: SelectScreen Z'LYTE. The format is biochemical. The method in brief: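 Percent values come from Thermo SelectScreen profiling of NU5455, combining activity and binding assays. CSF1R was run in Z'LYTE format at Km app ATP, and CAMK1 in Adapta format with ATP listed at 10.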

Consider `CN(C(=O)CN1CCOCC1)c1ccc2sc3c(-c4cccc5c(=O)cc(N6CC7CCC(C6)O7)oc45)cccc3c2c1` [NU5455], for which the inhibition at 1 µM was -14.5%.
